# Laboratory results reported in patent US6737383B1, “Herbicidal oxadiazolidines” (priority 1999, dated 2004).
# What was measured:
# sugar beet = test: Test B pre/postemergence sugar beet; type: in vivo, Beta vulgaris
# Outline: (§1)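 Test chemicals in a non-phytotoxic solvent mixture with surfactant were sprayed preemergence onto planted seeds and postemergence onto plants 2 to 18 cm tall (1- to 4-leaf stage). After twelve to sixteen days in a greenhouse, injury was visually rated against untreated controls from 0 (no effect) to 10 (complete control).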
# wild oat = test: Test B pre/postemergence wild oat; type: in vivo, Avena fatua
# Outline: as §1
# cocklebur = test: Test B pre/postemergence cocklebur; type: in vivo, Xanthium strumarium
# Outline: as §1
# giant foxtail = test: Test B pre/postemergence giant foxtail; type: in vivo, Setaria faberii
# Outline: as §1
# blackgrass = test: Test B pre/postemergence blackgrass; type: in vivo, Alopecurus myosuroides
# Outline: as §1
# crabgrass = test: Test B pre/postemergence crabgrass; type: in vivo, Digitaria sanguinalis
# Outline: as §1
# bedstraw = test: Test B pre/postemergence bedstraw; type: in vivo, Galium aparine
# Outline: as §1
# pigweed = test: Test B pre/postemergence pigweed; type: in vivo, Amaranthus retroflexus
# Outline: as §1
# soybean = test: Test B pre/postemergence soybean; type: in vivo, Glycine max
# Outline: as §1
# velvetleaf = test: Test B pre/postemergence velvetleaf; type: in vivo, Abutilon theophrasti
# Outline: as §1
# corn = test: Test B pre/postemergence corn; type: in vivo, Zea mays
# Outline: as §1
# wheat = test: Test B pre/postemergence wheat; type: in vivo, Triticum aestivum
# Outline: as §1
# purple nutsedge = test: Test B pre/postemergence purple nutsedge; type: in vivo, Cyperus rotundus
# Outline: as §1
# rape = test: Test B pre/postemergence rape; type: in vivo, Brassica napus
# Outline: as §1
# surinam grass = test: Test B pre/postemergence surinam grass; type: in vivo, Brachiaria decumbens
# Outline: as §1
# morningglory = test: Test B pre/postemergence morningglory; type: in vivo, Ipomoea hederacea
# Outline: as §1
# [1] = Postemergence, Rate 62 g/ha, scale 0 to 10, 0 is no effect, 10 is complete control
# [2] = Preemergence, Rate 125 g/ha, scale of 0 to 10 where 0 is no effect and 10 is complete control
# [3] = Preemergence, Rate 250 g/ha, scale 0 (no effect) to 10 (complete control)
# [4] = Rate 62 g/ha, Preemergence, scale 0 to 10
# [5] = Rate 250 g/ha, Postemergence, scale 0 to 10, 0 is no effect, 10 is complete control
# [6] = Rate 500 g/ha, Postemergence, scale 0 to 10, 0 is no effect, 10 is complete control
# [7] = Rate 500 g/ha, Preemergence, scale 0 to 10 (0 no effect, 10 complete control)
# [8] = Postemergence, Rate 125 g/ha, scale of 0 to 10 where 0 is no effect and 10 is complete control
compound,measurement,setting,value
Cc1nc(C(C)n2c(=O)on(C(=O)N(c3ccc(F)cc3)C(C)C)c2=O)sc1C (stereo not shown) [Compound 757],"Plant response rating, Sugarbeets",sugar beet; [1],0
same,"Plant response rating, Sugarbeets",sugar beet; [2],0
same,Sugarbeets plant response rating,sugar beet; [3],0
same,Sugarbeets plant response rating,sugar beet; [4],0
same,Sugarbeets plant response rating,sugar beet; [5],3
same,Sugarbeets plant response rating,sugar beet; [6],3
same,Sugarbeets plant response rating,sugar beet; [7],0
same,"Plant response rating, Wild oats",wild oat; [1],0
same,"Plant response rating, Wild oats",wild oat; [2],0
same,Wild oats plant response rating,wild oat; [3],2
same,Wild oats plant response rating,wild oat; [4],0
same,Wild oats plant response rating,wild oat; [5],0
same,Wild oats plant response rating,wild oat; [6],0
same,Wild oats plant response rating,wild oat; [7],5
same,"Plant response rating, Cocklebur",cocklebur; [1],0
same,Cocklebur plant response rating,cocklebur; [8],0
same,"Plant response rating, Cocklebur",cocklebur; [2],0
same,Cocklebur plant response rating,cocklebur; [3],0
same,Cocklebur plant response rating,cocklebur; [4],0
same,Cocklebur plant response rating,cocklebur; [5],2
same,Cocklebur plant response rating,cocklebur; [6],2
same,Cocklebur plant response rating,cocklebur; [7],0
same,"Plant response rating, Giant foxtail",giant foxtail; [1],2
same,Giant foxtail plant response rating,giant foxtail; [8],2
same,"Plant response rating, Giant foxtail",giant foxtail; [2],9
same,Giant foxtail plant response rating,giant foxtail; [3],9
same,Giant foxtail plant response rating,giant foxtail; [4],9
same,Giant foxtail plant response rating,giant foxtail; [5],5
same,Giant foxtail plant response rating,giant foxtail; [6],7
same,Giant foxtail plant response rating,giant foxtail; [7],9
same,"Plant response rating, Blackgrass",blackgrass; [1],0
same,Blackgrass plant response rating,blackgrass; [8],0
same,"Plant response rating, Blackgrass",blackgrass; [2],2
same,Blackgrass plant response rating,blackgrass; [3],3
same,Blackgrass plant response rating,blackgrass; [4],1
same,Blackgrass plant response rating,blackgrass; [5],3
same,Blackgrass plant response rating,blackgrass; [6],4
same,Blackgrass plant response rating,blackgrass; [7],7
same,"Plant response rating, Crabgrass",crabgrass; [1],3
same,Crabgrass plant response rating,crabgrass; [8],4
same,"Plant response rating, Crabgrass",crabgrass; [2],9
same,Crabgrass plant response rating,crabgrass; [3],9
same,Crabgrass plant response rating,crabgrass; [4],6
same,Crabgrass plant response rating,crabgrass; [5],6
same,Crabgrass plant response rating,crabgrass; [6],6
same,Crabgrass plant response rating,crabgrass; [7],9
same,Bedstraw plant response rating,bedstraw; [8],0
same,"Plant response rating, Bedstraw",bedstraw; [2],0
same,Bedstraw plant response rating,bedstraw; [3],0
same,Bedstraw plant response rating,bedstraw; [4],0
same,Bedstraw plant response rating,bedstraw; [5],0
same,Bedstraw plant response rating,bedstraw; [7],0
same,"Plant response rating, Redroot pigweed",pigweed; [1],1
same,Redroot pigweed plant response rating,pigweed; [8],3
same,"Plant response rating, Redroot pigweed",pigweed; [2],0
same,Redroot pigweed plant response rating,pigweed; [3],2
same,Redroot pigweed plant response rating,pigweed; [4],0
same,Redroot pigweed plant response rating,pigweed; [5],5
same,Redroot pigweed plant response rating,pigweed; [6],7
same,Redroot pigweed plant response rating,pigweed; [7],3
same,"Plant response rating, Soybean",soybean; [1],3
same,"Plant response rating, Soybean",soybean; [2],0
same,Soybean plant response rating,soybean; [3],0
same,Soybean plant response rating,soybean; [4],0
same,Soybean plant response rating,soybean; [5],4
same,Soybean plant response rating,soybean; [6],4
same,Soybean plant response rating,soybean; [7],0
same,"Plant response rating, Velvetleaf",velvetleaf; [1],0
same,"Plant response rating, Velvetleaf",velvetleaf; [2],0
same,Velvetleaf plant response rating,velvetleaf; [3],0
same,Velvetleaf plant response rating,velvetleaf; [4],0
same,Velvetleaf plant response rating,velvetleaf; [5],3
same,Velvetleaf plant response rating,velvetleaf; [6],4
same,Velvetleaf plant response rating,velvetleaf; [7],0
same,"Plant response rating, Corn",corn; [1],0
same,Corn plant response rating,corn; [8],0
same,"Plant response rating, Corn",corn; [2],0
same,Corn plant response rating,corn; [3],0
same,Corn plant response rating,corn; [4],0
same,Corn plant response rating,corn; [5],0
same,Corn plant response rating,corn; [6],0
same,Corn plant response rating,corn; [7],0
same,"Plant response rating, Wheat",wheat; [1],0
same,"Plant response rating, Wheat",wheat; [2],0
same,Wheat plant response rating,wheat; [3],0
same,Wheat plant response rating,wheat; [4],0
same,Wheat plant response rating,wheat; [5],0
same,Wheat plant response rating,wheat; [6],0
same,Wheat plant response rating,wheat; [7],3
same,"Plant response rating, Nutsedge",purple nutsedge; [1],0
same,Nutsedge plant response rating,purple nutsedge; [8],0
same,"Plant response rating, Nutsedge",purple nutsedge; [2],0
same,Nutsedge plant response rating,purple nutsedge; [3],0
same,Nutsedge plant response rating,purple nutsedge; [4],0
same,Nutsedge plant response rating,purple nutsedge; [5],0
same,Nutsedge plant response rating,purple nutsedge; [6],0
same,Nutsedge plant response rating,purple nutsedge; [7],0
same,"Plant response rating, Rape",rape; [1],0
same,Rape plant response rating,rape; [8],0
same,"Plant response rating, Rape",rape; [2],0
same,Rape plant response rating,rape; [3],0
same,Rape plant response rating,rape; [4],0
same,Rape plant response rating,rape; [5],0
same,Rape plant response rating,rape; [6],0
same,Rape plant response rating,rape; [7],0
same,"Plant response rating, B. signalgrass",surinam grass; [1],0
same,B. signalgrass plant response rating,surinam grass; [8],0
same,B. signalgrass plant response rating,"surinam grass; Preemergence, Rate 62 g/ha, scale of 0 to 10 where 0 is no effect and 10 is complete control",0
same,"Plant response rating, B. signalgrass",surinam grass; [2],0
same,B. signalgrass plant response rating,surinam grass; [3],2
same,B. signalgrass plant response rating,surinam grass; [5],0
same,B. signalgrass plant response rating,surinam grass; [6],1
same,B. signalgrass plant response rating,surinam grass; [7],7
same,"Plant response rating, Morningglory",morningglory; [1],6
same,Morningglory plant response rating,morningglory; [8],6
same,"Plant response rating, Morningglory",morningglory; [2],0
same,Morningglory plant response rating,morningglory; [3],0
same,Morningglory plant response rating,morningglory; [4],0
same,Morningglory plant response rating,morningglory; [5],7
same,Morningglory plant response rating,morningglory; [6],9
same,Morningglory plant response rating,morningglory; [7],0
